Experimental data reported in patent US12459951B2, “Compounds that interact with RAS superfamily proteins for treatment of cancers, inflammatory diseases, rasopathies, and fibrotic disease” (SHY Therapeutics, LLC, priority 2022, dated 2025).

Assays:
Akt phosphorylation = assay: Akt Phosphorylation Assay (western blot), Panc-1; assay type: cell-based, human; settings: at 10 μM, * = activation
Protocol: Protocol for Western Akt Cell-Based Phosphorylation Assay
This assay is referred to as the “Akt Phosphorylation Assay” throughout this application.
Human tumor-derived pancreatic cancer cell line Panc-1 (expressing KRas G12D mutant) was purchased from American Type Culture Collection and grown in complete DMEM-High Glucose supplemented with penicillin (100 U/mL), streptomycin (100 μg/mL), and 10% heat-inactivated FBS at 37° C. in a humidified incubator with 5% CO2.
Method 1: Cells were plated at 350000 cells/well density in a 12-well plate, allowed 3 hours to adhere to the plate, then starved in the appropriate medium in the presence of 0.5% FBS overnight. The small molecules to be tested were added to the cells in the final concentration of 10 μM in the presence of 0.3% DMSO for 6 hours incubation at 37° C. Next, cells were stimulated with 1.5 ng/ml EGF for 15 minutes then cells were lysed with lysis buffer containing 1% Triton X-100, EDTA, and Halt™ Protease & Phosphatase Inhibitor Cocktail (Thermo Scientific). Protein concentration was assessed by BCA protein assay (Thermo Scientific). Phosphorylation level of Akt was determined by western blot.
Method 2: Cells were plated at 350000 cells/well density in a 12-well plate in 10% FBS. The next day small molecules to be tested were added to the cells in the final concentration of 10 μM in the presence of 0.3% DMSO for 6 hours incubation at 37° C. For IC50 value determination, serial dilutions of compounds were added to cells under the same conditions. Next, cells were lysed with lysis buffer containing 1% Triton X-100, EDTA, and Halt™ Protease & Phosphatase Inhibitor Cocktail (Thermo Scientific). Protein concentration was assessed by BCA protein assay (Thermo Scientific). Phosphorylation level of Akt was determined by western blot.
Western blot protocol: Equal amounts of protein (15-50 μg) were separated by SDS-PAGE and transferred to nitrocellulose membranes (Invitrogen by Thermo Fisher Scientific). The membrane was stained with Ponceau S Stain (Boston BioProducts) to verify uniform protein loading. Membranes were blocked with 10% milk and phosphorylation levels of Akt were assessed by incubating overnight at 4° C. with anti-phospho-Akt (Ser473) antibody (Cell Signaling) followed by HRP-conjugated secondary antibody (Jackson Immunoresearch, West Grove, PA). Bands were incubated in Amersham ECL Prime Western Blotting Detection Reagent (GE Healthcare) and visualized using the ChemiDoc MP imaging system (Bio-Rad).

KRas wild type = assay: Ras GTP Binding Domain Inhibition Assay (Ras Superfamily Assay); settings: 20 μM compound; for KRas wild type + SOS: % inh.: with SOS; for KRas wild type: % inh.: without SOS
Description: (§1) Biological Example 3: Ras GTP Binding Domain Inhibition Assay
(§2) The assays described in Example 3 are collectively referred to as the “Ras Superfamily Assay” throughout this application.
(§3) A Ras Superfamily Activity Assay (as disclosed in International Application No. PCT/US2018/038613, filed Jun. 20, 2018, which is incorporated by reference in its entirety) was used as a specific assay to evaluate compounds against the following for the following Ras Superfamily proteins: KRas wild type, KRas Q61H mutant, KRas G12C mutant, KRas G12D mutant, Rac-1, and Rho-A.
(§4) • 25 mM Tris-HCl, pH 7.4 • 27 mM KCl • 137 mM NaCl • 1 mM MgCl2 • 1 mM DTT Buffer-II: • 50 mM Tris-HCl, pH 7.0 • 1 mM MgCl2 • 1 mM DTT
(§5) The small GTPases proteins: KRas wild type. KRas Q61H mutant, KRas G12C mutant, KRas G12D mutants, Rac-1, and Rho-A were expressed as His-tagged proteins. In addition, the Guanosine nucleotide Exchange Factor (GEF) Sos protein (residues 556-1049) was expressed as a His-tagged protein. In cells, the guanine nucleotide exchange factor Sos protein promotes activation of Ras proteins by stimulating an exchange of GDP for GTP. The inclusion of Sos to the Ras GTP binding domain inhibition assay may be considered as an alternative representation of physiological cellular conditions for evaluating the inhibitory activity of some of the tested small molecules.
(§6) For the assay, all purified small GTPases proteins were diluted in Buffer-I or Buffer-II to a final concentration of 10-30 μg/mL. 200 μL of each diluted protein was added to a nickel-coated 96-well plate and incubated overnight at 4° C. Then the protein solution was discarded and 200 μL of Buffer-I or Buffer-II was added to each well in the presence of 1% DMSO. Compounds to be tested were added to the protein-coated wells at final concentration of 20 μM, and incubated for 3 hours at room temperature with and without 10-30 μg/mL of Sos added to the final hour of the incubation. When performing IC50 measurements a serial dilution of all tested concentrations was added. Then Cy3-GTP or Cy5-GTP was added to each well to a final concentration of 100 nM. The labeled GTP was incubated for 45 minutes at room temperature. Following GTP incubation, wells were washed 3× in Buffer-I or Buffer-II and 200 μL of Buffer-I or Buffer-II was added to each well. Following washes, the amount of bound labeled-GTP was measured using a SpectraMax M3 (Molecular Devices).

KRas G12D mutant = assay: as above; settings: 20 μM compound; for KRas G12D mutant + SOS: % inh.: with SOS; for KRas G12D mutant: % inh.: without SOS
Description: as §1, §2, §3, §4, §5, §6

Rac-1 = molecular target: T1, Rac-1 (Homo sapiens, UniProt P63000); assay: as above; settings: read-out: Rac-1: % inh.
T1 construct: made in house
Description: as §1, §2, §3, §4, §5, §6

Cc1c(-c2ccn(C3CC3)n2)cn2nc(-c3nccn3C)nc(Nc3cc(OC4CC4)ccn3)c12 [Compound 142, N-(4-Cyclopropoxypyridin-2-yl)-6-(1-cyclopropyl-1H-pyrazol-3-yl)-5-methyl-2-(1-methyl-1H-imidazol-2-yl)pyrrolo[2,1-f][1,2,4]triazin-4-amine]
% inh of Akt phosphorylation in Panc-1 (Akt phosphorylation): A (1-25% inhibition) | KRas wild type + SOS: % inh. (KRas wild type): D (D = 76-100% inhibition) | KRas wild type: % inh. (KRas wild type): D (D = 76-100% inhibition) | KRas G12D mutant + SOS: % inh. (KRas G12D mutant): D (D = 76-100% inhibition) | KRas G12D mutant: % inh. (KRas G12D mutant): D (D = 76-100% inhibition) | inhibition at 20 µM (Rac-1): 76 to 100%

Cc1c(-c2ccn(C3CC3)n2)cn2nc(-c3nccn3C)nc(O)c12 [Compound 134, 6-(1-Cyclopropyl-1H-pyrazol-3-yl)-5-methyl-2-(1-methyl-1H-imidazol-2-yl)pyrrolo[2,1-f][1,2,4]triazin-4-ol]
% inh of Akt phosphorylation in Panc-1 (Akt phosphorylation): A (1-25% inhibition) | KRas wild type + SOS: % inh. (KRas wild type): 0 (0 = 0% inhibition) | KRas wild type: % inh. (KRas wild type): 0 (0 = 0% inhibition) | KRas G12D mutant + SOS: % inh. (KRas G12D mutant): A (A = 1-25% inhibition) | KRas G12D mutant: % inh. (KRas G12D mutant): A (A = 1-25% inhibition) | inhibition at 20 µM (Rac-1): 1 to 25%

Cc1c(-c2ccn(C)n2)cn2nc(-c3nccn3C)nc(Nc3cnccn3)c12 [Compound 120, 5-Methyl-2-(1-methyl-1H-imidazol-2-yl)-6-(1-methyl-1H-pyrazol-3-yl)-N-(pyrazin-2-yl)pyrrolo[2,1-f][1,2,4]triazin-4-amine]
% inh of Akt phosphorylation in Panc-1 (Akt phosphorylation): B* (26-49% activation) | KRas wild type + SOS: % inh. (KRas wild type): C (C = 50-75% inhibition) | KRas wild type: % inh. (KRas wild type): A (A = 1-25% inhibition) | KRas G12D mutant + SOS: % inh. (KRas G12D mutant): A (A = 1-25% inhibition) | KRas G12D mutant: % inh. (KRas G12D mutant): B (B = 26-49% inhibition) | inhibition at 20 µM (Rac-1): 26 to 49%

Cc1c(-c2ccn(C)n2)cn2nc(-c3nccn3C)nc(Nc3cc(OCCO)ncn3)c12 [Compound 101, 2-((6-((5-Methyl-2-(1-methyl-1H-imidazol-2-yl)-6-(1-methyl-1H-pyrazol-3-yl)pyrrolo[2,1-f][1,2,4]triazin-4-yl)amino)pyrimidin-4-yl)oxy) ethan-1-ol]
% inh of Akt phosphorylation in Panc-1 (Akt phosphorylation): D* (85-100% activation) | KRas wild type + SOS: % inh. (KRas wild type): B (B = 26-49% inhibition) | KRas wild type: % inh. (KRas wild type): D (D = 76-100% inhibition) | KRas G12D mutant + SOS: % inh. (KRas G12D mutant): C (C = 50-75% inhibition) | KRas G12D mutant: % inh. (KRas G12D mutant): D (D = 76-100% inhibition) | inhibition at 20 µM (Rac-1): 76 to 100%

Cc1c(-c2ccn(C)n2)cn2nc(-c3nccn3C)nc(Nc3cc(OC4CC4)ccn3)c12 [Compound 126, N-(4-Cyclopropoxypyridin-2-yl)-5-methyl-2-(1-methyl-1H-imidazol-2-yl)-6-(1-methyl-1H-pyrazol-3-yl)pyrrolo[2,1-f][1,2,4]triazin-4-amine]
% inh of Akt phosphorylation in Panc-1 (Akt phosphorylation): D* (85-100% activation) | KRas wild type + SOS: % inh. (KRas wild type): A (A = 1-25% inhibition) | KRas wild type: % inh. (KRas wild type): A (A = 1-25% inhibition) | KRas G12D mutant + SOS: % inh. (KRas G12D mutant): B (B = 26-49% inhibition) | KRas G12D mutant: % inh. (KRas G12D mutant): B (B = 26-49% inhibition) | inhibition at 20 µM (Rac-1): 26 to 49%

COc1ccnc(Nc2nc(-c3nccn3C)nn3cc(-c4cccnc4)c(C)c23)c1 [Compound 157, N-(4-Methoxy-pyridin-2-yl)-5-methyl-2-(1-methyl-1H-imidazol-2-yl)-6-(pyridin-3-yl)pyrrolo[2,1-f][1,2,4]triazin-4-amine]
% inh of Akt phosphorylation in Panc-1 (Akt phosphorylation): D* (85-100% activation) | KRas wild type + SOS: % inh. (KRas wild type): D (D = 76-100% inhibition) | KRas wild type: % inh. (KRas wild type): D (D = 76-100% inhibition) | KRas G12D mutant + SOS: % inh. (KRas G12D mutant): D (D = 76-100% inhibition) | KRas G12D mutant: % inh. (KRas G12D mutant): D (D = 76-100% inhibition) | inhibition at 20 µM (Rac-1): 76 to 100%

Cc1c(-c2ccn(C)n2)cn2nc(-c3nccn3C)nc(Nc3ccn(C4CC4)n3)c12 [Compound 111, N-(1-Cyclopropyl-1H-pyrazol-3-yl)-5-methyl-2-(1-methyl-1H-imidazol-2-yl)-6-(1-methyl-1H-pyrazol-3-yl)pyrrolo[2,1-f][1,2,4]triazin-4-amine]
% inh of Akt phosphorylation in Panc-1 (Akt phosphorylation): D* (85-100% activation) | KRas wild type + SOS: % inh. (KRas wild type): A (A = 1-25% inhibition) | KRas wild type: % inh. (KRas wild type): C (C = 50-75% inhibition) | KRas G12D mutant + SOS: % inh. (KRas G12D mutant): B (B = 26-49% inhibition) | KRas G12D mutant: % inh. (KRas G12D mutant): B (B = 26-49% inhibition) | inhibition at 20 µM (Rac-1): 26 to 49%

COc1cc(Nc2nc(-c3nccn3C)nn3cc(-c4ccn(C5CC5)n4)c(C)c23)ncn1 [Compound 135, 6-(1-Cyclopropyl-1H-pyrazol-3-yl)-N-(6-methoxypyrimidin-4-yl)-5-methyl-2-(1-methyl-1H-imidazol-2-yl)pyrrolo[2,1-f][1,2,4]triazin-4-amine]
% inh of Akt phosphorylation in Panc-1 (Akt phosphorylation): D* (85-100% activation) | KRas wild type + SOS: % inh. (KRas wild type): D (D = 76-100% inhibition) | KRas wild type: % inh. (KRas wild type): D (D = 76-100% inhibition) | KRas G12D mutant + SOS: % inh. (KRas G12D mutant): D (D = 76-100% inhibition) | KRas G12D mutant: % inh. (KRas G12D mutant): D (D = 76-100% inhibition) | inhibition at 20 µM (Rac-1): 76 to 100%

Cc1c(-c2ccn(C)n2)cn2nc(-c3nccn3C)nc(Nc3n[nH]c(C4CC4)n3)c12 [Compound 113, N-(5-Cyclopropyl-1H-1,2,4-triazol-3-yl)-5-methyl-2-(1-methyl-1H-imidazol-2-yl)-6-(1-methyl-1H-pyrazol-3-yl)pyrrolo[2,1-f][1,2,4]triazin-4-amine]
% inh of Akt phosphorylation in Panc-1 (Akt phosphorylation): D* (85-100% activation) | KRas wild type + SOS: % inh. (KRas wild type): D (D = 76-100% inhibition) | KRas wild type: % inh. (KRas wild type): C (C = 50-75% inhibition) | KRas G12D mutant + SOS: % inh. (KRas G12D mutant): D (D = 76-100% inhibition) | KRas G12D mutant: % inh. (KRas G12D mutant): D (D = 76-100% inhibition) | inhibition at 20 µM (Rac-1): 76 to 100%
